Laboratory results: US9120770B2, “Substituted pyridine and pyrazine compounds as PDE4 inhibitors” (DART NEUROSCIENCE (CAYMAN) LTD., priority 2013, dated 2015)

Molecular target: PDE4D3 (Homo sapiens, UniProt Q08499)
Sequence (Q08499 1-673 isoform Q08499-2): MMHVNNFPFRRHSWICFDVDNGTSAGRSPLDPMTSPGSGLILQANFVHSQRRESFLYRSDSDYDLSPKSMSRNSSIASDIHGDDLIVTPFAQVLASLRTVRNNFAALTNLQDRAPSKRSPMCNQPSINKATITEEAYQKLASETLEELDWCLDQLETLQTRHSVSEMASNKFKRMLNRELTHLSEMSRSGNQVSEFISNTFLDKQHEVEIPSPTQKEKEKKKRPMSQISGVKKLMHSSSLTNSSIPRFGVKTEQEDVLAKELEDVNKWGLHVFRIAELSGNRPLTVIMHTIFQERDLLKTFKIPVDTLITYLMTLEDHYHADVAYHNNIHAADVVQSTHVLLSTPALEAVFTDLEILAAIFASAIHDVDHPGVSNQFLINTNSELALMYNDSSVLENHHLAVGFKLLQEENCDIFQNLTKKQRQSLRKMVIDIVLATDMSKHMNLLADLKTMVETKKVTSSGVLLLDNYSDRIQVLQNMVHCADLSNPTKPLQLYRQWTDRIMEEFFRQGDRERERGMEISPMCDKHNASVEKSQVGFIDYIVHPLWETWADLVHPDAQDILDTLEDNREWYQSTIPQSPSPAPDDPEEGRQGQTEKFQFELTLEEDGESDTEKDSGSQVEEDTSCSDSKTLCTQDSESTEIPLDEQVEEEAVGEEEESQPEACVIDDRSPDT

Row | SMILES | EC50
1 | COc1ncc(Cc2cnn(C)c2)cc1-c1cccc(Cl)c1 [Example 79, 3-(3-Chlorophenyl)-2-methoxy-5-[(1-methyl-1H-pyrazol-4-yl)methyl]pyridine] | < 100 nM
2 | COc1ncc(Cn2cc(Cl)cn2)cc1-c1cccc(Cl)c1 [Example 178, 5-[(4-Chloro-1H-pyrazol-1-yl)methyl]-3-(3-chlorophenyl)-2-methoxypyridine] | 100 to 1000 nM
3 | COc1ncc(C(O)c2ccc(F)cc2)cc1-c1cccc(Cl)c1 (stereo not shown) [Example 14, [5-(3-Chlorophenyl)-6-methoxypyridin-3-yl](4-fluorophenyl)methanol] | 100 to 1000 nM
4 | Nc1ncn(Cc2cnc(OC(F)F)c(-c3ccnc(OC(F)F)c3)c2)n1 [Example 231, 1-{[6-(Difluoromethoxy)-5-[2-(difluoromethoxy)pyridin-4-yl]pyridin-3-yl]methyl}-1H-1,2,4-triazol-3-amine] | 100 to 1000 nM
5 | FC(F)Oc1ncc(Cc2ccc(OCC3CC3)nc2)cc1-c1cccc(Cl)c1 [Example 102, 3-(3-Chlorophenyl)-5-{[6-(cyclopropylmethoxy)pyridin-3-yl]methyl}-2-(difluoromethoxy)pyridine] | 100 to 1000 nM
6 | CCOC(=O)c1cnn(Cc2cnc(OC)c(-c3cccc(Cl)c3)c2)c1 [Example 169, Ethyl 1-{[5-(3-chlorophenyl)-6-methoxypyridin-3-yl]methyl}-1H-pyrazole-4-carboxylate] | 1000 to 10000 nM
7 | N#Cc1ncc(Cc2cnc(OC(F)F)c(-c3cccc(Cl)c3)c2)cn1 [Example 35, 5-{[5-(3-Chlorophenyl)-6-(difluoromethoxy)pyridin-3-yl]methyl}pyrimidine-2-carbonitrile] | 1000 to 10000 nM
8 | COc1ncc(Cc2ccc(NC(=O)NC3COC3)cc2)cc1-c1cccc(Cl)c1 [Example 31, 1-(4-{[5-(3-Chlorophenyl)-6-methoxypyridin-3-yl]methyl}phenyl)-3-(oxetan-3-yl)urea] | 1000 to 10000 nM
9 | COc1ncc(Cn2cncn2)cc1-c1ccncc1 [Example 171, 2-Methoxy-3-(pyridin-4-yl)-5-(1H-1,2,4-triazol-1-ylmethyl)pyridine] | 100 to 1000 nM
10 | COc1ncc(Cc2ccc(CN)cc2)cc1-c1cccc(Cl)c1 [Example 59, (4-{[5-(3-Chlorophenyl)-6-methoxypyridin-3-yl]methyl}phenyl)methanamine] | 100 to 1000 nM
11 | COc1ncc(Cc2cnc(C(N)=O)nc2)cc1-c1cccc(Cl)c1 [Example 24, 5-{[5-(3-Chlorophenyl)-6-methoxypyridin-3-yl]methyl}pyrimidine-2-carboxamide] | 100 to 1000 nM
12 | COc1ncc(Cn2cncn2)cc1-c1cnn(C)c1 [Example 248, 2-Methoxy-3-(1-methyl-1H-pyrazol-4-yl)-5-(1H-1,2,4-triazol-1-ylmethyl)pyridine] | 1000 to 10000 nM
13 | NC(=O)c1ncc(Cc2cnc(OC(F)F)c(-c3cccc(Cl)c3)c2)cn1 [Example 117, 5-{[5-(3-Chlorophenyl)-6-(difluoromethoxy)pyridin-3-yl]methyl}pyrimidine-2-carboxamide] | 100 to 1000 nM
14 | FC(F)Oc1ncc(Cc2cnoc2)cc1-c1cccc(Cl)c1 [Example 97, 3-(3-Chlorophenyl)-2-(difluoromethoxy)-5-(1,2-oxazol-4-ylmethyl)pyridine] | 100 to 1000 nM
15 | OCc1ncn(Cc2cnc(OC(F)F)c(-c3ccnc(OC(F)F)c3)c2)n1 [Example 207, (1-{[6-(Difluoromethoxy)-5-[2-(difluoromethoxy)pyridin-4-yl]pyridin-3-yl]methyl}-1H-1,2,4-triazol-3-yl)methanol] | 100 to 1000 nM
16 | CCOC(=O)C1(c2ccc(Cc3cnc(OC(F)F)c(-c4cccc(Cl)c4)c3)cc2)CC1 [Example 101, Ethyl 1-(4-{[5-(3-chlorophenyl)-6-(difluoromethoxy)pyridin-3-yl]methyl}phenyl)cyclopropane-1-carboxylate] | 1000 to 10000 nM
17 | NC(=O)c1ccc(Cc2cnc(OC(F)F)c(-c3cccc(Cl)c3)c2)cn1 [Example 114, 5-{[5-(3-Chlorophenyl)-6-(difluoromethoxy)pyridin-3-yl]methyl}pyridine-2-carboxamide] | 100 to 1000 nM
18 | Nc1ccc(Cc2cnc(OC(F)F)c(-c3cccc(Cl)c3)c2)cn1 [Example 33, 5-{[5-(3-Chlorophenyl)-6-(difluoromethoxy)pyridin-3-yl]methyl}pyridin-2-amine] | < 100 nM
19 | COc1ncc(Cn2cc(C(N)=O)cn2)cc1-c1cccc(Cl)c1 [Example 271, 1-{[5-(3-Chlorophenyl)-6-methoxypyridin-3-yl]methyl}-1H-pyrazole-4-carboxamide] | 100 to 1000 nM
20 | COc1ncc(Cc2cnc(C(=O)O)nc2)cc1-c1cccc(Cl)c1 [Example 23, 5-{[5-(3-Chlorophenyl)-6-methoxypyridin-3-yl]methyl}pyrimidine-2-carboxylic acid] | 1000 to 10000 nM

Results, then the compound that gave them:

Row | EC50 | SMILES
21 | < 100 nM | OCc1cn(Cc2cnc(OC(F)F)c(-c3cccc(Cl)c3)c2)cn1 [Example 274, (1-{[5-(3-Chlorophenyl)-6-(difluoromethoxy)pyridin-3-yl]methyl}-1H-imidazol-4-yl)methanol]
22 | < 100 nM | Fc1cccc(-c2cc(Cn3cncn3)cnc2OC(F)F)c1 [Example 174, 2-(Difluoromethoxy)-3-(3-fluorophenyl)-5-(1H-1,2,4-triazol-1-ylmethyl)pyridine]
23 | < 100 nM | COc1ncc(Cn2cnc(CF)n2)cc1-c1ccnc(OC(F)F)c1 [Example 256, 3-[2-(Difluoromethoxy)pyridin-4-yl]-5-{[3-(fluoromethyl)-1H-1,2,4-triazol-1-yl]methyl}-2-methoxypyridine]
24 | < 100 nM | COc1ncc(Cn2cnc(N)n2)cc1-c1ccnc(OC(F)F)c1 [Example 229, 1-({5-[2-(Difluoromethoxy)pyridin-4-yl]-6-methoxypyridin-3-yl}methyl)-1H-1,2,4-triazol-3-amine]
25 | > 10000 nM | COc1ncc(Cn2cc(N)cn2)nc1-c1cccc(Cl)c1 [Example 236, 1-{[6-(3-Chlorophenyl)-5-methoxypyrazin-2-yl]methyl}-1H-pyrazol-4-amine]
26 | 1000 to 10000 nM | N#Cc1ncn(Cc2cnc(OC(F)F)c(-c3cccc(Cl)c3)c2)n1 [Example 156, 1-{[5-(3-Chlorophenyl)-6-(difluoromethoxy)pyridin-3-yl]methyl}-1H-1,2,4-triazole-3-carbonitrile]
27 | 100 to 1000 nM | CCOc1ncc(Cn2ncnc2C(F)(F)F)nc1-c1cccc(OC(F)F)c1 [Example 188, 3-[3-(Difluoromethoxy)phenyl]-2-ethoxy-5-{[5-(trifluoromethyl)-1H-1,2,4-triazol-1-yl]methyl}pyrazine]
28 | < 100 nM | CCOc1ncc(Cc2cnc(N)nc2)nc1-c1cccc(Cl)c1 [Example 105, 5-{[6-(3-Chlorophenyl)-5-ethoxypyrazin-2-yl]methyl}pyrimidin-2-amine]
29 | 100 to 1000 nM | COc1ncc(Cn2cnc(CO)n2)nc1-c1cccc(OC(F)F)c1 [Example 211, [1-({6-[3-(Difluoromethoxy)phenyl]-5-methoxypyrazin-2-yl}-methyl)-1H-1,2,4-triazol-3-yl]methanol]
30 | < 100 nM | Nc1ncn(Cc2cnc(OC(F)F)c(-c3cccc(Cl)c3)c2)n1 [Example 219, 1-{[5-(3-Chlorophenyl)-6-(difluoromethoxy)pyridin-3-yl]methyl}-1H-1,2,4-triazol-3-amine]
31 | < 100 nM | COc1ncc(Cn2cnc(C)n2)cc1-c1cccc(OC(F)F)c1 [Example 155, 3-[3-(Difluoromethoxy)phenyl]-2-methoxy-5-[(3-methyl-1H-1,2,4-triazol-1-yl)methyl]pyridine]
32 | < 100 nM | COc1ncc(Cn2cnc(CO)n2)cc1-c1cccc(OC(F)F)c1 [Example 202, [1-({5-[3-(Difluoromethoxy)phenyl]-6-methoxypyridin-3-yl}methyl)-1H-1,2,4-triazol-3-yl]methanol]
33 | < 100 nM | CCOc1cccc(-c2cc(Cn3cc(CO)nn3)cnc2OC(F)F)c1 [Example 264, (1-((6-(Difluoromethoxy)-5-(3-ethoxyphenyl)pyridin-3-yl)methyl)-1H-1,2,3-triazol-4-yl)methanol]
34 | < 100 nM | COc1ncc(Cn2cncn2)cc1-c1cccc(C(F)F)c1 [Example 144, 3-[3-(Difluoromethyl)phenyl]-2-methoxy-5-(1H-1,2,4-triazol-1-ylmethyl)pyridine]
35 | 1000 to 10000 nM | NCc1ncn(Cc2cnc(OC(F)F)c(-c3cccc(Cl)c3)c2)n1 [Example 240, (1-{[5-(3-Chlorophenyl)-6-(difluoromethoxy)pyridin-3-yl]methyl}-1H-1,2,4-triazol-3-yl)methanamine]
36 | < 100 nM | COc1ncc(Cc2cnn(C)c2)nc1-c1cccc(Cl)c1 [Example 58, 3-(3-Chlorophenyl)-2-methoxy-5-[(1-methyl-1H-pyrazol-4-yl)methyl]pyrazine]
37 | < 100 nM | CCOc1cccc(-c2cc(Cn3cnc(CO)n3)cnc2OC(F)F)c1 [Example 204, (1-{[6-(Difluoromethoxy)-5-(3-ethoxyphenyl)pyridin-3-yl]methyl}-1H-1,2,4-triazol-3-yl)methanol]
38 | 100 to 1000 nM | CCOc1ncn(Cc2cnc(OC(F)F)c(-c3cccc(Cl)c3)c2)n1 [Example 216, 3-(3-Chlorophenyl)-2-(difluoromethoxy)-5-[(3-ethoxy-1H-1,2,4-triazol-1-yl)methyl]pyridine]
39 | < 100 nM | CCOc1ncc(Cc2cnc(N)nc2)nc1-c1cccc(OC(F)F)c1 [Example 104, 5-({6-[3-(Difluoromethoxy)phenyl]-5-ethoxypyrazin-2-yl}methyl)pyrimidin-2-amine]
40 | < 100 nM | FC(F)Oc1ncc(Cc2cnccn2)cc1-c1cccc(Cl)c1 [Example 110, 2-{[5-(3-Chlorophenyl)-6-(difluoromethoxy)pyridin-3-yl]methyl}pyrazine]
41 | 1000 to 10000 nM | COc1ncc(Cn2cnc(C3CC3)n2)nc1-c1cccc(Cl)c1 [Example 133, 3-(3-Chlorophenyl)-5-[(3-cyclopropyl-1H-1,2,4-triazol-1-yl)methyl]-2-methoxypyrazine]
42 | 100 to 1000 nM | COc1ncc(Cc2cnc(C(N)=O)nc2)cc1-c1cccc(OC(F)F)c1 [Example 121, 5-({5-[3-(Difluoromethoxy)phenyl]-6-methoxypyridin-3-yl}methyl)pyrimidine-2-carboxamide]
43 | < 100 nM | CCOc1ncc(Cn2cnc(C)n2)nc1-c1cccc(OC(F)F)c1 [Example 185, 3-[3-(Difluoromethoxy)phenyl]-2-ethoxy-5-[(3-methyl-1H-1,2,4-triazol-1-yl)methyl]pyrazine]
